From patent US9714288B2, “Antisense compounds and uses thereof” (The Regents of the University of California, priority 2014, dated 2017)
Converted amounts (≈) assume the structure as drawn. Oligonucleotides are written 5' to 3', each unit as a sugar letter and its base; * is a phosphorothioate linkage, no mark a phosphodiester; rarer units and linkages stand in square brackets, end groups in braces. Plain capitals give the bases only. k = constrained ethyl (cEt); [5mC] = 5-methylcytosine; d = 2'-deoxy (DNA)

Columns and labels:
MXD3 mRNA = MXD3 mRNA levels in K-562 cells by quantitative real-time PCR; assay type: cell-based, human; details: for MXD3 mRNA at 10 μM oligonucleotide (% control): K-562 cells electroporated with 10 μM, ~24 hours, relative to untreated control; for IC50: K-562 cells, MXD3 mRNA, 0-35.0 μM, approximate values
Description: Several hundred antisense oligonucleotides that target human MAX Dimerization Protein 3 (MXD3), GENBANK accession number NT_023133.13 truncated 21540000 to 21577000, SEQ ID NO: 1, were synthesized using standard solid phase oligonucleotide synthetic methods. They are chimeric oligonucleotides (“gapmers”) 16 nucleotides in length, composed of a central “gap” region consisting of 10 2′-deoxynucleotides, which is flanked on both sides (5′ and 3′) by three-nucleotide “wings”. The wings are composed of 4′-CH(CH3)—O-2′ modified nucleotides, also known as constrained ethyl or (S)-cEt nucleotides. The internucleoside (backbone) linkages are phosphorothioate throughout the oligonucleotides. All cytosine residues are 5-methylcytosines. The sequences of selected MXD3 targeting antisense oligonucleotides and their start and stop sites along GENBANK accession number NT_023133.13 truncated 21540000 to 21577000 are shown in Table 1 below.
The antisense oligonucleotides were analyzed for their effects on target mRNA levels. K-562 cells were plated at a density of 50,000 cells per well in 96-well plates and were electroporated with 10 μM oligonucleotide or with no oligonucleotide for untreated controls. After approximately 24 hours, RNA was isolated from the cells, and MXD3 mRNA levels were measured by quantitative real-time PCR using primer probe set RTS4263 (forward: 5′-[…]-3′, SEQ ID NO: 2; reverse: 5′-TGGCCAAGGGTTCCATGT-3′, SEQ ID NO: 3; probe: 5′-CTGCAGCCGCTTGCTCCGG-3′, SEQ ID NO: 4). MXD3 mRNA levels were adjusted according to total RNA content, as measured by RIBOGREEN®. Results for selected oligonucleotides are presented as average percent MXD3 mRNA level, relative to untreated control cells, in Table 1.
A subset of the MXD3 targeting antisense oligonucleotides were selected for dose response analysis in K-562 cells. Cells were electroporated with 0, 2.19, 8.75, or 35.0 μM antisense oligonucleotide and analyzed as described above. Results for selected oligonucleotides are presented as approximate IC50 values in Table 1.

[1] = Tolerability of antisense oligonucleotides in BALB/c mice; assay type: in vivo; details: 50 mg/kg s.c. twice per week for three weeks, #1 most favorable, #13 least favorable
Procedure: Selected antisense oligonucleotides were then tested for tolerability in vivo. Six week old, male BALB/c mice were injected subcutaneously twice per week for three weeks with 50 mg/kg of an antisense oligonucleotide listed in Table 1 or with PBS. Each treatment group consisted of 4 animals. Two days following the final oligonucleotide administration, the mice were sacrificed and plasma transaminase levels, body weights, and organ weights were evaluated relative to the PBS treated group. Isis numbers 632417, 632461, and 632640 had the most favorable tolerability rankings and were selected as leads. Isis No. 632461 targets human, mouse, and monkey MXD3 sequences with no mismatches and was chosen for use in further studies.

Reh cells = test: Reh cell growth, number of live cells (MTT assay); assay type: cell-based, human; details: for IC50: Homo sapiens, experimentally determined, Reh cells; for Average number of live cells × 10^3: Table 9, Reh cells, conjugate 2 μM oligonucleotide, Doxorubicin 2.56 ng/mL, Vincristine 1.18 ng/mL

Row | Compound | MXD3 mRNA at 10 μM oligonucleotide (% control) (MXD3 mRNA) | IC50 (MXD3 mRNA) [µM] | Ranking (tolerability) [1] | IC50 (Reh cells) [ng/mL] | Average number of live cells × 10^3 (Reh cells; 4 hours) | Average number of live cells × 10^3 (Reh cells; 8 hours) | Average number of live cells × 10^3 (Reh cells; 24 hours) | Average number of live cells × 10^3 (Reh cells; 48 hours) | Average number of live cells × 10^3 (Reh cells; 72 hours)
1 | 632407 (antisense k[5mC]*kA*kT*d[5mC]*d[5mC]*dA*d[5mC]*d[5mC]*d[5mC]*dA*d[5mC]*dG*d[5mC]*k[5mC]*kG*kG) [compound 632407] | 60.5 | 1.64 | 12 |  |  |  |  |  | 
2 | 632640 (antisense k[5mC]*kA*kA*dG*d[5mC]*dA*dA*d[5mC]*dA*dA*dG*dT*dG*kG*kG*k[5mC]) [compound 632640] | 65.6 | 0.38 | 3 |  |  |  |  |  | 
3 | 632461 (antisense k[5mC]*kA*k[5mC]*dA*dG*dG*dG*dA*d[5mC]*dG*d[5mC]*dA*dT*kA*kA*k[5mC]) [compound 632461] | 59.8 | 8.99 | 2 |  |  |  |  |  | 
4 | 632672 (antisense kA*kT*k[5mC]*d[5mC]*dA*dT*d[5mC]*d[5mC]*dG*dA*dG*dA*dA*k[5mC]*k[5mC]*kA) [compound 632672] | 50.3 | 4.76 | 6 |  |  |  |  |  | 
5 | 632669 (antisense kT*kA*kA*dA*d[5mC]*dA*d[5mC]*dT*dT*dG*dT*d[5mC]*dA*kG*kA*kG) [compound 632669] | 34.0 | 9.05 | 4 |  |  |  |  |  | 
6 | 632527 (antisense k[5mC]*kA*kT*d[5mC]*dA*dT*dA*dG*d[5mC]*d[5mC]*dA*dG*dG*k[5mC]*kG*k[5mC]) [compound 632527] | 76.5 | 9.23 | 8 |  |  |  |  |  | 
7 | 632682 (antisense kG*kT*k[5mC]*dA*dT*dT*d[5mC]*dA*dA*d[5mC]*dA*dA*dG*kA*kA*kG) [compound 632682] | 28.4 | 5.61 | 11 |  |  |  |  |  | 
8 | CC[C@]1(O)C[C@H]2CN(CCc3c([nH]c4ccccc34)[C@@](C(=O)OC)(c3cc4c(cc3OC)N(C=O)[C@H]3[C@@](O)(C(=O)OC)[C@H](OC(C)=O)[C@]5(CC)C=CCN6CC[C@]43[C@@H]65)C2)C1 [Vcr, Vincristine] |  |  |  | 1.18 (≈ 1.43 nM) | 20.2 × 10^3 | 19.6 × 10^3 | 27.8 × 10^3 | 33.1 × 10^3 | 34.8 × 10^3
9 | 632417 (antisense kG*kG*k[5mC]*d[5mC]*d[5mC]*dT*dG*dG*dA*dG*d[5mC]*dG*dA*kA*k[5mC]*k[5mC]) [compound 632417] | 38.3 | 7.05 | 1 |  |  |  |  |  | 
10 | 632673 (antisense k[5mC]*kA*k[5mC]*dA*dT*d[5mC]*dA*dT*d[5mC]*d[5mC]*dA*dT*d[5mC]*k[5mC]*kG*kA) [compound 632673] | 27.5 | 5.58 | 7 |  |  |  |  |  | 
11 | 632460 (antisense kA*kT*kA*dA*d[5mC]*d[5mC]*dA*dT*dG*d[5mC]*dT*d[5mC]*dG*kG*k[5mC]*k[5mC]) [compound 632460] | 59.0 | 2.95 | 13 |  |  |  |  |  | 
12 | 632424 (antisense kA*kG*k[5mC]*d[5mC]*dG*d[5mC]*dA*dG*d[5mC]*d[5mC]*d[5mC]*dA*d[5mC]*k[5mC]*k[5mC]*kT) [compound 632424] | 94.4 | 1.64 | 9 |  |  |  |  |  | 
13 | 632528 (antisense kA*kG*kG*dA*dA*d[5mC]*dA*dT*d[5mC]*dA*dT*dA*dG*k[5mC]*k[5mC]*kA) [compound 632528] | 63.6 | 5.89 | 5 |  |  |  |  |  | 
14 | 632634 (antisense kG*kG*kA*dT*dT*dA*d[5mC]*dT*dG*dT*d[5mC]*d[5mC]*dT*kA*kG*kG) [compound 632634] | 47.4 | 5.71 | 10 |  |  |  |  |  | 
15 | COc1cccc2c1C(=O)c1c(O)c3c(c(O)c1C2=O)C[C@@](O)(C(=O)CO)C[C@@H]3O[C@H]1C[C@H](N)[C@H](O)[C@H](C)O1 [Doxo, Doxorubicin] |  |  |  | 2.56 (≈ 4.71 nM) | 22.3 × 10^3 | 22.9 × 10^3 | 30 × 10^3 | 37 × 10^3 | 41.8 × 10^3
